The source of these data is ChEMBL document CHEMBL6103650, “Hybrid Molecules of Benzothiazole and Hydroxamic Acid as Dual-Acting Biofilm Inhibitors with Antibacterial Synergistic Effect against Pseudomonas aeruginosa Infections” (J Med Chem, 2025).

Each structure is given as a SMILES string. Activity calls are given as the source filed them. The rule behind the calls is not given here.

A short description of data set [1]: Toxicity in BALB/c mouse assessed as change in body weight. The settings on record: in vivo.
Data set [2] has as its system Pseudomonas aeruginosa. Kind of data set: Synergistic […] activity against Pseudomonas aeruginosa PAO1 assessed as fractional inhibitory concentration index measured for 20 hrs in presence of ciprofloxacin by microdilution checkboard assay. The data set is classed as functional. In general terms: Broth dilution looks for growth in wells or tubes with falling amounts of substance.

Data set [3] relates to Pseudomonas aeruginosa. Kind of data set: Antibiofilm activity against Pseudomonas aeruginosa PAO1 assessed as reduction in pFe(III) content incubated for 24 hrs by cell total iron colorimetric assay. The data set is classed as functional, organism-based. The settings on record: dose 0.3125-10 µM.
Data set [4] in a line: Toxicity in BALB/c mouse assessed as heart damage by H and E staining based analysis. Conditions: in vivo. The format is tissue-based.
The test system of data set [5] is Pseudomonas aeruginosa. Kind of data set: Antibacterial activity against Pseudomonas aeruginosa PAO1 infected in BALB/c mouse wound infection model assessed as reduction in wound area at 2.5 uM administered to wound once a day for 3 days and measured after 9 days in dropwise manner in presence of Tob. The format is functional. The arrangement: scale not given: the % may be the effect or the level left. The settings on record: time 12 day.

The test system of data set [6] is Pseudomonas aeruginosa. Kind of data set: Antibiofilm activity against Pseudomonas aeruginosa PA14 assessed as inhibition of biofilm formation incubated for 24 hrs by crystal violet staining based analysis. The format is functional, organism-based. The settings on record: PA14, 24 h.
Data set [7] concerns Pseudomonas aeruginosa. As to the kind of experiment: Synergistic […] activity against Pseudomonas aeruginosa PAO1 assessed as fractional inhibitory concentration index measured for 20 hrs in presence of tobramycin by microdilution checkboard assay. The data set is classed as functional.
For data set [8], the system named is Pseudomonas aeruginosa. Kind of data set: Antibiofilm activity against Pseudomonas aeruginosa PAO1 overexpressing fpvA assessed as inhibition of biofilm formation at 0.3125 to 10 uM incubated for 24 hrs by crystal violet staining based analysis. The format is functional, organism-based. The settings on record: dose 0.3125-10 µM.
The test system of data set [9] is Pseudomonas aeruginosa. Kind of data set: Antibiofilm activity against Pseudomonas aeruginosa PA1129 assessed as inhibition of biofilm formation incubated for 24 hrs by crystal violet staining based analysis. The format is functional, organism-based.
For data set [10], the system named is Pseudomonas aeruginosa. As to the kind of experiment: Antibiofilm activity against Pseudomonas aeruginosa PAO1 assessed as fold increase in pyochelin level at 10 uM incubated for 2 hrs by fluorescence based analysis. The format is functional.
Data set [11] relates to Pseudomonas aeruginosa. Kind of data set: Antibiofilm activity against Pseudomonas aeruginosa PAO1 assessed as inhibition of biofilm formation at 0.15625 to 2.5 uM incubated for 24 hrs by crystal violet staining based analysis. The format is functional, organism-based. The settings on record: dose 0.15625-2.5 µM.
For data set [12], the system named is Pseudomonas aeruginosa. As to the kind of experiment: Antibacterial activity against Pseudomonas aeruginosa PAO1 infected in BALB/c mouse wound infection model measured after 3 days. The format is functional, organism-based. Conditions: time 3.0 day.
Data set [13] relates to Pseudomonas aeruginosa. Kind of data set: Antibiofilm activity against Pseudomonas aeruginosa PAO1 harboring pvds-deficient mutant assessed as inhibition of biofilm formation at 0.3125 to 10 uM incubated for 24 hrs by crystal violet staining based analysis. The format is functional, organism-based. The settings on record: dose 0.3125-10 µM.
For data set [14], the system named is Pseudomonas aeruginosa. Kind of data set: Antibiofilm activity against Pseudomonas aeruginosa PAO1 assessed as inhibition of biofilm formation incubated for 24 hrs by crystal violet staining based analysis. The format is functional, organism-based.
In data set [15] the test system is Pseudomonas aeruginosa. Kind of data set: Anti-motility activity against Pseudomonas aeruginosa PAO1 assessed as reduction in swarming motility at 10 uM incubated for 24 hrs relative to control. The format is functional. The arrangement: scale not given: the % may be the effect or the level left.

As for `COc1ccc2nc(NCC(=O)NCCCCC(=O)NO)sc2c1`, the Activity result is “Non-toxic” in data set [1]; “Dose-dependent-effect” in the data set with Pseudomonas aeruginosa [3]; “Non-toxic” in data set [4]; 35% in the data set with Pseudomonas aeruginosa [5]; “No effect” in the data set on Pseudomonas aeruginosa [8]; “No effect” in the data set on Pseudomonas aeruginosa [12]. Moreover, the results for the Activity entry in the data set with Pseudomonas aeruginosa [13], in the data set on Pseudomonas aeruginosa [14] and with Pseudomonas aeruginosa [15] were “No effect”, “Dose-dependent-effect” and 84%, respectively. Also, the “fractional inhibitory concentration index (FICI)” value with Pseudomonas aeruginosa [2] came out at 0.25; in the data set on Pseudomonas aeruginosa [7], 0.29. For the same molecule, the concentration for half-maximal inhibition (IC50) (commonly the point on the concentration scale where inhibition reaches its midpoint) was determined as 1450 nM in the data set on Pseudomonas aeruginosa [6] and 400 nM with Pseudomonas aeruginosa [14] (PAO1, 24 h). The result in the data set on Pseudomonas aeruginosa [9] was Active. The “fold change (FC)” value in the data set with Pseudomonas aeruginosa [10] came to 1.7. Also, the result in the data set on Pseudomonas aeruginosa [11] was inactive.
